Experimental data reported in ChEMBL document CHEMBL4419169, “Novel Ferroportin Inhibitors” (2018).
Each block holds one compound with its values, some of them ahead of it. Calls of active or inactive are those of the source. The calls are words filed in the database; no cut-off is given here.

Assays:
[1] = biological target: T1, Ferroportin (Mus musculus) (UniProt Q9JHI9); assay: Inhibition of ferroportin in mouse J774 cells assessed as induce ferroportin ubiquitination and degradation at 0.1 uM incubated for 10 mins by immunoprecipitation assay; assay type: cell-based
T1 sequence (whole entry): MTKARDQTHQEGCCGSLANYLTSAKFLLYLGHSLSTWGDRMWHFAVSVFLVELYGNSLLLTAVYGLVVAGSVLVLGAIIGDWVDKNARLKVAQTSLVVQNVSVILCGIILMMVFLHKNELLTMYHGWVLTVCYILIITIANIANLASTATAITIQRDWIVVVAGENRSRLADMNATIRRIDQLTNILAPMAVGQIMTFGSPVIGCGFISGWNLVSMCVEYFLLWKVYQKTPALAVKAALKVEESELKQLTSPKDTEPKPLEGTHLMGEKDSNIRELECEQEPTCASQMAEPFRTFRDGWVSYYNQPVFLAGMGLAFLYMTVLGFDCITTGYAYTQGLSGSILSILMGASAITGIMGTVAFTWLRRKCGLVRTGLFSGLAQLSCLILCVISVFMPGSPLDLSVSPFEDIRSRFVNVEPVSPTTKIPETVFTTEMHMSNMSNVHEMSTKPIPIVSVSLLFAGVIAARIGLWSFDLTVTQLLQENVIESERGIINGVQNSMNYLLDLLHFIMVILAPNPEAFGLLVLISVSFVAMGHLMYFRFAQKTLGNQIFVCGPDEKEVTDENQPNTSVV

[2] = biological target: T1, Ferroportin (Mus musculus); assay: Inhibition of ferroportin in mouse J774 cells assessed as induce ferroportin ubiquitination and degradation at 0.1 uM incubated for 120 mins by immunoprecipitation assay; assay type: cell-based
Mus musculus [3] = assay: Prevention of hyperferremia in iron overloaded beta2-microglobulin deficient female mouse assessed as reduction in serum iron level at 60 mg/kg, po measured after 3 hrs relative to control; assay type: functional; design: scale not given: the % may be the effect or the level left
Mus musculus [4] = assay: Disease modifying capacity in mouse model of transfusion-independent beta-thalassemia intermedia assessed as decrease in bone marrow ROS levels level at 60 mg/kg, po BID for 27 days relative to control; assay type: functional; design: scale not given: the % may be the effect or the level left
Mus musculus [5] = assay: Prevention of hyperferremia in iron overloaded beta2-microglobulin deficient male mouse assessed as reduction in serum iron level at 60 mg/kg, po measured after 3 hrs relative to control; assay type: functional; design: scale not given: the % may be the effect or the level left
Mus musculus [6] = assay: Disease modifying capacity in mouse model of transfusion-independent beta-thalassemia intermedia assessed as increase in hematocrit levels at 20 mg/kg, po BID for 20 days relative to control; assay type: functional
Mus musculus [7] = assay: Disease modifying capacity in mouse model of transfusion-independent beta-thalassemia intermedia assessed as decrease in [58Fe] spleen iron content at 20 mg/kg, po BID for 20 days relative to control; assay type: functional; design: scale not given: the % may be the effect or the level left
Mus musculus [8] = assay: Disease modifying capacity in mouse model of transfusion-independent beta-thalassemia intermedia assessed as decrease in blood reticulocyte counts at 20 mg/kg, po BID for 20 days relative to control; assay type: functional; design: scale not given: the % may be the effect or the level left
Mus musculus [9] = assay: Disease modifying capacity in mouse model of transfusion-independent beta-thalassemia intermedia assessed as decrease in bone marrow ROS levels level at 60 mg/kg, po BID for 20 days relative to control; assay type: functional; design: scale not given: the % may be the effect or the level left
[10] = biological target: T1, Ferroportin (Mus musculus); assay: Inhibition of ferroportin in mouse J774 cells assessed as induce ferroportin ubiquitination and degradation at […] incubated for 120 mins by immunoprecipitation assay; assay type: cell-based
Mus musculus [11] = assay: Disease modifying capacity in mouse model of transfusion-independent beta-thalassemia intermedia assessed as decrease in blood reticulocyte counts at 60 mg/kg, po BID for 20 days relative to control; assay type: functional; design: scale not given: the % may be the effect or the level left
Mus musculus [12] = assay: Induction of hypoferremia in wild type C57BL/6 mouse assessed as decrease in serum iron levels at 100 mg/kg, po measured after 3 hrs post dose; assay type: functional; design: scale not given: the % may be the effect or the level left
Mus musculus [13] = assay: Disease modifying capacity in mouse model of transfusion-independent beta-thalassemia intermedia assessed as decrease in leukocyte counts level at 20 mg/kg, po BID for 20 days relative to control; assay type: functional; design: scale not given: the % may be the effect or the level left
Mus musculus [14] = assay: Disease modifying capacity in mouse model of transfusion-independent beta-thalassemia intermedia assessed as decrease in serum erythropoietin at 20 mg/kg, po BID for 20 days relative to control; assay type: functional; design: scale not given: the % may be the effect or the level left
Mus musculus [15] = assay: Induction of hypoferremia in wild type C57BL/6 mouse assessed as decrease in serum iron levels at 10 mg/kg, po measured after 3 hrs post dose; assay type: functional; design: scale not given: the % may be the effect or the level left
Mus musculus [16] = assay: Disease modifying capacity in mouse model of transfusion-independent beta-thalassemia intermedia assessed as prevention of liver [58Fe] loading at 60 mg/kg, po BID for 20 days relative to control; assay type: functional
Mus musculus [17] = assay: Disease modifying capacity in mouse model of transfusion-independent beta-thalassemia intermedia assessed as decrease in RDW level at 60 mg/kg, po BID for 20 days relative to control; assay type: functional; design: scale not given: the % may be the effect or the level left
Mus musculus [18] = assay: Disease modifying capacity in mouse model of transfusion-independent beta-thalassemia intermedia assessed as decrease in leukocyte counts level at 60 mg/kg, po BID for 20 days relative to control; assay type: functional; design: scale not given: the % may be the effect or the level left
Mus musculus [19] = assay: Prevention of hyperferremia in iron overloaded beta2-microglobulin deficient male mouse assessed as reduction in serum iron level at 20 mg/kg, po measured after 3 hrs relative to control; assay type: functional; design: scale not given: the % may be the effect or the level left
Mus musculus [20] = assay: Disease modifying capacity in mouse model of transfusion-independent beta-thalassemia intermedia assessed as decrease in RDW level at 20 mg/kg, po BID for 20 days relative to control; assay type: functional; design: scale not given: the % may be the effect or the level left
Mus musculus [21] = assay: Disease modifying capacity in mouse model of transfusion-independent beta-thalassemia intermedia assessed as increase in blood erythrocyte counts at 60 mg/kg, po BID for 20 days relative to control; assay type: functional
Mus musculus [22] = assay: Decrease in serum iron in mouse model of transfusion-independent beta-thalassemia intermedia at 60 mg/kg, po BID for 20 days relative to control; assay type: functional; design: scale not given: the % may be the effect or the level left
Mus musculus [23] = assay: Disease modifying capacity in mouse model of transfusion-independent beta-thalassemia intermedia assessed as decrease in serum erythropoietin at 60 mg/kg, po BID for 20 days relative to control; assay type: functional; design: scale not given: the % may be the effect or the level left
Mus musculus [24] = assay: Prevention of hyperferremia in iron overloaded beta2-microglobulin deficient female mouse assessed as reduction in serum iron level at 20 mg/kg, po measured after 3 hrs relative to control; assay type: functional; design: scale not given: the % may be the effect or the level left
Mus musculus [25] = assay: Induction of hypoferremia in wild type C57BL/6 mouse assessed as decrease in serum iron levels at 30 mg/kg, po measured after 3 hrs post dose; assay type: functional; design: scale not given: the % may be the effect or the level left
Mus musculus [26] = assay: Disease modifying capacity in mouse model of transfusion-independent beta-thalassemia intermedia assessed as prevention of liver [58Fe] loading at 20 mg/kg, po BID for 20 days relative to control; assay type: functional
Mus musculus [27] = assay: Disease modifying capacity in mouse model of transfusion-independent beta-thalassemia intermedia assessed as decrease in [58Fe] spleen iron content at 60 mg/kg, po BID for 20 days relative to control; assay type: functional; design: scale not given: the % may be the effect or the level left
[28] = biological target: T1, Ferroportin (Mus musculus); assay: Inhibition of ferroportin in mouse J774 cells assessed as induce ferroportin ubiquitination and degradation at […] incubated for 10 mins by immunoprecipitation assay; assay type: cell-based
Mus musculus [29] = assay: Disease modifying capacity in mouse model of transfusion-independent beta-thalassemia intermedia assessed as decrease in spleen erythroferrone-mRNA at 20 mg/kg, po BID for 20 days relative to control; assay type: functional; design: scale not given: the % may be the effect or the level left
Mus musculus [30] = assay: Disease modifying capacity in mouse model of transfusion-independent beta-thalassemia intermedia assessed as increase in blood erythrocyte counts at 20 mg/kg, po BID for 20 days relative to control; assay type: functional
Rattus norvegicus [31] = assay: Prevention of iron absorption in anemic Wistar rat model of iron absorption assessed as inhibition of increase in serum iron at 3 mg/kg, po pre-dosed 1 hr before ferrous sulfate dosing and measured 3 hours after iron dosing; assay type: functional
Mus musculus [32] = assay: Decrease in serum iron in mouse model of transfusion-independent beta-thalassemia intermedia at 20 mg/kg, po BID for 20 days relative to control; assay type: functional; design: scale not given: the % may be the effect or the level left
Rattus norvegicus [33] = assay: Prevention of iron absorption in anemic Wistar rat model of iron absorption assessed as inhibition of increase in serum iron at 30 mg/kg, po pre-dosed 1 hr before ferrous sulfate dosing and measured 3 hours after iron dosing; assay type: functional
Mus musculus [34] = assay: Disease modifying capacity in mouse model of transfusion-independent beta-thalassemia intermedia assessed as increase in hematocrit levels at 60 mg/kg, po BID for 20 days relative to control; assay type: functional
Rattus norvegicus [35] = assay: Prevention of iron absorption in anemic Wistar rat model of iron absorption assessed as inhibition of increase in serum iron at 10 mg/kg, po pre-dosed 1 hr before ferrous sulfate dosing and measured 3 hours after iron dosing; assay type: functional
Mus musculus [36] = assay: Disease modifying capacity in mouse model of transfusion-independent beta-thalassemia intermedia assessed as decrease in relative spleen weight at 20 mg/kg, po BID for 20 days relative to control; assay type: functional; design: scale not given: the % may be the effect or the level left
Mus musculus [37] = assay: Disease modifying capacity in mouse model of transfusion-independent beta-thalassemia intermedia assessed as decrease in relative spleen weight at 60 mg/kg, po BID for 20 days relative to control; assay type: functional; design: scale not given: the % may be the effect or the level left
Mus musculus [38] = assay: Disease modifying capacity in mouse model of transfusion-independent beta-thalassemia intermedia assessed as decrease in bone marrow ROS levels level at 20 mg/kg, po BID for 20 days relative to control; assay type: functional; design: scale not given: the % may be the effect or the level left

inhibition [1]: Active | inhibition [2]: Active
SMILES: Cl.Cl.Cl.O=C(NCc1ncccc1F)c1coc(CCNCCc2nc3ccccc3[nH]2)n1 [VAMIFEPORT HYDROCHLORIDE]
Activity (Mus musculus [3]): 74% | Activity (Mus musculus [4]): 75% | Activity (Mus musculus [5]): 83%

inhibition [10]: Active | inhibition [28]: Active
SMILES: O=C(NCc1ncccc1F)c1cnc(CCNCCc2nc3ccccc3[nH]2)o1
Activity (Mus musculus [6]): 0% | Activity (Mus musculus [7]): 14% | Activity (Mus musculus [8]): 8% | Activity (Mus musculus [3]): 52% | Activity (Mus musculus [9]): 45% | Activity (Mus musculus [11]): 39% | Activity (Mus musculus [12]): 51% | Activity (Mus musculus [13]): 32% | Activity (Mus musculus [14]): 64% | Activity (Mus musculus [15]): 0% | Activity (Mus musculus [16]): 40% | Activity (Mus musculus [17]): 16% | Activity (Mus musculus [18]): 44% | Activity (Mus musculus [19]): 31% | Activity (Mus musculus [20]): 3% | Activity (Mus musculus [21]): 8% | Activity (Mus musculus [22]): 66% | Activity (Mus musculus [23]): 78% | Activity (Mus musculus [24]): 31% | Activity (Mus musculus [25]): 28% | Activity (Mus musculus [26]): 12% | Activity (Mus musculus [27]): 48% | Activity (Mus musculus [29]): 82% | Activity (Mus musculus [30]): 4% | inhibition in vivo at 3 mg/kg (Rattus norvegicus [31]): 2.1% | Activity (Mus musculus [32]): 49% | inhibition in vivo at 30 mg/kg (Rattus norvegicus [33]): 64.9% | Activity (Mus musculus [34]): 4% | inhibition in vivo at 10 mg/kg (Rattus norvegicus [35]): 42.6%

SMILES: O=C(NCc1ncccc1F)c1cnc(C2CN(CCc3nc4ccccc4[nH]3)C2)o1
Activity (Mus musculus [6]): 0% | Activity (Mus musculus [7]): 13% | Activity (Mus musculus [8]): 0% | Activity (Mus musculus [3]): 57% | Activity (Mus musculus [9]): 65% | Activity (Mus musculus [5]): 66% | Activity (Mus musculus [12]): 50% | Activity (Mus musculus [13]): 29% | Activity (Mus musculus [14]): 4% | Activity (Mus musculus [15]): 9% | Activity (Mus musculus [16]): 47% | Activity (Mus musculus [17]): 15% | Activity (Mus musculus [18]): 55% | Activity (Mus musculus [19]): 29% | Activity (Mus musculus [20]): 0% | Activity (Mus musculus [21]): 33% | Activity (Mus musculus [22]): 69% | Activity (Mus musculus [23]): 27% | Activity (Mus musculus [24]): 27% | Activity (Mus musculus [36]): 16% | Activity (Mus musculus [25]): 26% | Activity (Mus musculus [26]): 14% | Activity (Mus musculus [27]): 40% | Activity (Mus musculus [37]): 47% | Activity (Mus musculus [30]): 0% | inhibition in vivo at 3 mg/kg (Rattus norvegicus [31]): -3% | Activity (Mus musculus [32]): 50% | Activity (Mus musculus [38]): 13% | inhibition in vivo at 30 mg/kg (Rattus norvegicus [33]): 57% | Activity (Mus musculus [34]): 15% | inhibition in vivo at 10 mg/kg (Rattus norvegicus [35]): 29%
